The text below walks through data of US20110081317A1, “Enhancing Gene Transfer” (UNIVERSITY OF ROCHESTER, priority 2007, published 2011).

In data set [1] the test system is HEK 293 cells. As to the kind of experiment: Phage-mediated luciferase gene transfer in HEK 293 cells. Conditions: for effect on phage-mediated luciferase gene transfer: MOI 1×10^6, omeprazole 50 μM, brefeldin A 500 ng/ml, chloroquine 50 μM for 24 h. It is filed as cell-based, Human. Here is the method: (§1) Preparation of bacteriophage lambda lysogens and vector production. The λD1180(luc) lysogen (Dam15 del EcoRI-Sac1 clts857 nin5 Sam100) has been described (Eguchi et al., J. Biol. Chem. 276(28):26204-10, 2001). The λD1180(luc) phage contains a firefly luciferase reporter gene under the regulatory control of the human cytomegalovirus immediate-early promoter. λD1180(luc) phage particles were prepared from E. coli lysogens that were stably transformed with either a plasmid encoding wildtype gpD or plasmids encoding gpD fusion proteins of interest, as described (Zanghi et al., Nucleic Acids Res. 33(18):e160, 2005). λ(luc) particles were purified by CsCl density gradient centrifugation and titered on LE392 E. coli cells (Zanghi et al., Nucleic Acids Res. 33(18):e160,2005).
(§2) Cells lines and phage transduction. Human embryonic kidney (HEK) 293 cells and COS simian kidney cells were obtained from American Type Culture Collection (ATCC), P.O. Box 1549, Manassas, Va. 20108. Cells were cultured in Dulbecco's Modified Eagle's Medium (DMEM) containing 10% fetal bovine serum, plus 2 mM L-glutamine and 100 U/ml penicillin, 100 μg/ml streptomycin. Twenty-four to forty-eight (24-48) hours following addition of phage to cells, cultures were washed with phosphate buffered saline (PBS) and lysed in passive lysis buffer (Promega Corporation, Madison, Wis.). Protein content in the lysates was quantitated by Bradford assay, and equal amounts of lysate (normalized in terms of protein content) were used in luciferase assays. Luciferase assay data are reported in relative light units.
(§3) To analyze the function of the proteasome in phage-mediated gene transfer, HEK 293A cells and COS-7 cells were incubated with luciferase encoding phage particles, in the presence or absence of three different pharmacologic inhibitors of proteasome activity (lactacystin, bortezomib and MG132). Lactacystin is an irreversible inhibitor of the 20S-proteasome, while bortezomib and MG132 are reversible inhibitors of the 26S-proteasome complex. […] The latter phage were generated by producing genetically gpD-deficient lambda phage particles in E. coli host cells that expressed a recombinant derivative of gpD, fused to a truncated PEST-like motif derived from seeligeriolysin O, a cholesterol-dependent cytolysin of Listeria seeligeri.

In data set [2] the test system is COS cells. As to the kind of experiment: Phage-mediated luciferase gene transfer in COS cells. Conditions: luciferase at 48 h; for effect on phage-mediated luciferase gene transfer: MOI 1×10^6, omeprazole 50 μM, brefeldin A 500 ng/ml, chloroquine 70 μM for 24 h. It is filed as cell-based, simian. Here is the method: as §1, §2, §3
Data set [3] concerns HEK 293 cells. In words: Measurement of endosomal pH by flow cytometry of fluorescein/tetramethylrhodamine dextran. It is filed as cell-based, Human. Conditions: 500 nM bafilomycin A1. Here is the method:
Measurement of endosomal pH. 5×10^5 HEK293 cells were preincubated in DMEM medium with 10% FBS (DMEM-10) overnight, after which the medium was replaced by DMEM-10 containing 2 mg/ml 70kD fluorescein and tetramethylrhodamine dextran (Invitrogen, Carlsbad, Calif.) plus either 100 nM or 500 nM bafilomycin A1 (BAF) or 2 mg/mL of nigericin (positive control) or no drug (negative control). One and a half (1.5) hours later, cells were washed in warm PBS and fresh media was added (with or without BAF or nigericin, as appropriate). Two (2) hours thereafter, cells were again washed with warm PBS, detached by trypsinization, washed with fresh media (with or without BAF or nigericin, as appropriate), and pelleted by centrifugation (5 minutes, 1000 g at 4° C.). Fluorescein
(F) and tetramethylrhodamine (T) fluorescence were quantitated by flow cytometric analysis using a FACS Calibur (Becton Dickinson). A standard curve was generated by suspending aliquots of cells (in the presence of 2 mg/ml of nigericin) in PBS at pH 4, 4.4, 5, 5.4, 6 and 6.4. The ratio of T/F fluorescence was then plotted against pH, to generate a standard curve; data from the bafilomycin-treated and non-treated cells were then extrapolated to this curve, in order to calculate endosomal pH.

In data set [4] the test system is HEK 293 cells. In words: Quantitative analysis of intranuclear lambda phage genomic DNA (qPCR). Format: cell-based, Human. Conditions: Tpell phage, MOI 1×10^6, bortezomib 10 nM for 16 h, harvest at 24 h, p<0.01 vs untreated.
Experimental: Quantitative analysis of intranuclear lambda phage genomic DNA. HEK 293 cells were incubated with phage lambda at a MOI of 10^6 in the presence or absence of 10 nM bortezomib. Sixteen (16) hours later, media was replaced with bortezomib-free DMEM (10% FBS); twenty-four (24) hours thereafter, cells were washed with cold PBS and non-internalized phage particles were then removed by performing 3 cold acid washes (0.2M CH3COOH, 0.5M NaCl, pH2.5), as described (Lankes et al., J. Appl. Microbiol 102(5):1337-49, 2007). […] Phage genomic DNA in the nuclear lysate was quantitated by DNA qPCR analysis on a BioRad iCycler using a TaqMan® (Roche Molecular Systems, Inc., Pleasanton, Calif.) primer/probe set specific for the lambda phage integrase gene (Probe: FAM-5′-[sequence]-3′-TAMRA (SEQ ID NO:2), Forward-5′-[sequence]-3′ (SEQ ID NO:3), Reverse-5′-[sequence]-3′ (SEQ ID NO:4)). Cellular chromosomal DNA in the nuclear lysate was also quantitated by DNA qPCR analysis using a TaqMan® (Roche Molecular Systems, Inc., Pleasanton, Calif.) primer/probe set specific for the 18S ribosomal RNA gene (Probe: FAM-5′-[sequence]-3′-TAMRA (SEQ ID NO:5), Forward-5′-[sequence]-3′ (SEQ ID NO:6), Reverse-5′-[sequence]-3′ (SEQ ID NO:7)). […]
Data set [5] has as its system HEK 293 cells. In words: Plasmid (pCMV:luc) luciferase expression in transiently transfected HEK 293 cells. Conditions: pCMV:luc transfected HEK 293; bortezomib 10 nM for 16 h; luciferase at 48 h. It is filed as cell-based, Human.
Experimental: Transient transfection of cells with plasmid DNA. 1×10^4 HEK 293 cells were seeded into 96-well plates and incubated overnight. Cells were then transfected with 50 ng of a mammalian expression plasmid encoding the luciferase reporter gene (pgWiz-CMV luciferase) using lipofectamine-2000 reagent in the presence or absence of lOnM bortezomib. Four (4) hours thereafter, media were removed and fresh media were added (with or without bortezomib). Cells were incubated for an additional 12 hours, and media were again replaced (this time without any exogenous drug). Forty-eight (48) hours after transfection of the cells, they were washed with PBS, incubated in 1× passive lysis buffer (Promega Corporation, Madison, Wis.) and lyzed using two freeze-thaw cycles. Protein content within the lysates was then quantitated using Bradford assay and equal amounts of lysate (normalized in terms of protein content) were used in luciferase assays. Luciferase assay data are reported in relative light units.
Therefore, a control experiment was performed to determine whether proteasome inhibition exerted an effect on luciferase expression from a non-phage based gene transfer agent containing the same luciferase expression cassette present in λD1180(luc). […]
Data set [6] deals with HEK 293 cells. As to the kind of experiment: Cytotoxicity / tolerability of proteasome inhibitors in HEK 293 cells. Format: cell-based, Human.
The test system of data set [7] is COS-7 cells. As to the kind of experiment: Adenovirus vector (AdLucGFP) mediated luciferase gene transfer in COS-7 cells. Conditions: AdLucGFP MOI 10, latrunculin A 120 nM added 30 min before transduction. It is filed as cell-based. Here is the method: FIG. 13 is a graph showing, in cells treated with paclitaxel, nocodazole, or latrunculin A, adenoviral-mediated luciferase gene transfer. Latrunculin A ([…]), paclitaxel (20 μg/ml), or nocodazole (5 μM) was added to cells 30 minutes prior to transduction of COS-7 cells with a luciferase-expressing adenovirus vector (AdLucGFP) at a multiplicity of infection (MOI) of 10. Media were changed 24-hours post-transfection, and cells were lysed in Passive Lysis Buffer 24 hours later. Protein quantities were standardized and luciferase activity was measured in the cell lysates. The mean control level is shown as Ad only.
Latrunculin A (120 nM), paclitaxel (Taxol® (Bristol Meyers Squibb, Princeton, N.J.), 20 μg/ml), or nocodazole (5 μM) was added to cells 30 minutes prior to transduction of COS-7 cells with a luciferase-expressing adenovirus vector (AdLucGFP) at a multiplicity of infection (MOI) of 10. Media were changed 24-hours post-transfection, and cells were lysed in Passive Lysis Buffer 24 hours later. Protein quantities were standardized and luciferase activity was measured in the cell lysates.

In data set [8] the test system is COS cells stably transfected with Fc receptor (CD64) and its associated gamma chain. In words: Plasmid/Lipofectamine-mediated luciferase gene transfer in CD64-expressing COS cells. Format: cell-based. Conditions: 30 min pretreatment, luciferase at 48 h; for increase in plasmid gene transfer efficiency: nocodazole 5 μM or paclitaxel 20 μg/ml. Here is the method: FIG. 12 is a graph showing plasmid mediated luciferase gene transfer in cells treated with a microtubule inhibitor. A DNA plasmid encoding a luciferase reporter gene was mixed with Lipofectamine. This was then added to COS cells that had been stably transfected with expression plasmids encoding a cellular Fc receptor (CD64) and its associated gamma chain, in the presence or absence (DNA only and DNA+DMSO) of latrunculin A (120 nM), paclitaxel (20 μg/ml), or nocodazole (5 μM). Cells were harvested 48 hours later and lysed, and luciferase activity measured.
A DNA plasmid encoding a luciferase reporter gene was mixed with Lipofectamine™ (Invitrogen, Carlsbad, Calif.). This was then added to COS cells that had been stably transfected expression plasmids encoding a cellular Fc receptor
(CD64) and its associated gamma chain. DNA was added to cells that had been pretreated for 30 minutes in the presence or absence of the microtubule inhibitors, nocodazole (5 μM) or paclitaxel (20 μg/ml), or the actin polymerization inhibitor, latrunculin A (120 nM). Cells were harvested 48 hours after transfection and lysed, and luciferase activity was measured.

Setting [9] is: Tpell phage, luciferase at 48 h.

SMILES strings stand for the structures. Peptide text beside a SMILES is read from it. * marks the point of attachment. Cbz = O=C(OCc1ccccc1)*

For the compound `CC(C)C[C@@H](C=O)NC(=O)[C@H](CC(C)C)NC(=O)[C@H](CC(C)C)NC(=O)OCc1ccccc1` [MG132] (Cbz-Leu-Leu-Leu-aldehyde), in data set [1] (WT and Tpell phage, MOI 1×10^6, MG132 1 μM for 16 h, luciferase at 48 h, vs untreated cells), the “enhancement of phage-mediated luciferase expression” value was 5-10 fold. Besides, the “effect on phage-mediated luciferase gene expression” value in data set [2] (WT and Tpell phage, MOI 1×10^6, lactacystin 3 μM, bortezomib 10 nM, MG132 1 μM for 16 h) was “strong trend”.
For `CO/C1=C\C(C)=C\[C@@H](C)[C@@H](O)[C@@H](C)C/C(C)=C/C=C/[C@H](OC)[C@@H]([C@@H](C)[C@@H](O)[C@H](C)[C@@]2(O)C[C@@H](O)[C@H](C)[C@@H](C(C)C)O2)OC1=O` [bafilomycin A1], the “effect on endosomal pH” value in data set [3] is “sufficient to raise endosomal pH”. Further, the “effect on phage-mediated gene transfer” value was “no effect” in data set [1] (Tpell phage, MOI 1×10^6, bafilomycin A for 24 h, luciferase at 48 h) and “no effect” in data set [2] (Tpell phage, MOI 1×10^6, bafilomycin A for 24 h).
In the case of `CC(C)C[C@H](NC(=O)[C@H](Cc1ccccc1)NC(=O)c1cnccn1)B(O)O` [bortezomib], in data set [1] (Tpell phage, MOI 1×10^6, bortezomib 10 nM for 24 h, luciferase at 48 h), the “effect of extended exposure on phage-mediated gene transfer” value is “robust, statistically significant, enhancement”. In data set [1] (Tpell phage, MOI 1×10^6, drugs for 24 h, luciferase at 48 h (FIG. 9)), the “effect on phage-mediated luciferase gene expression, agents alone and combined” value is reported as “modest increase”. In data set [4], the “nuclear accumulation of phage DNA (copies of lambda phage genomic DNA per cell)” value is recorded as “statistically significant increase”. Also, the “effect on plasmid-mediated luciferase expression” value in data set [5] is given as “no effect”. For the same compound, in data set [6], the “cytotoxicity relative to the other proteasome inhibitors tested” value is “least cytotoxic”.
For the compound `C[C@H]1CCC/C=C/[C@@H]2C[C@H](O)C[C@H]2[C@H](O)/C=C/C(=O)O1` [brefeldin A], the “effect on phage-mediated luciferase gene transfer” value in data set [1] (setting [9]) and in data set [2] (Tpell phage) was “no effect” each time.
For `CCN(CC)CCCC(C)Nc1ccnc2cc(Cl)ccc12` (stereo not shown) [chloroquine], the “effect on phage-mediated luciferase gene transfer” value in data set [2] (Tpell phage) is “statistically significant enhancement”.
For the compound `C/C1=C/C(=O)O[C@@H]2C[C@@H](CC[C@H](C)/C=C\C=C\CC1)O[C@@](O)([C@@H]1CSC(=O)N1)C2` [latrunculin A], the “effect on adenoviral gene transfer efficiency” value in data set [7] is on record as “no effect”. The “effect on efficiency of plasmid DNA expression” value in data set [8] (latrunculin A 120 nM) is recorded as “no effect”.
As to `COC(=O)Nc1nc2ccc(C(=O)c3cccs3)cc2[nH]1` [nocodazole], the “increase in plasmid gene transfer efficiency” value in data set [8] is “approx 50 fold”.
On to `COc1ccc2[nH]c([S+]([O-])Cc3ncc(C)c(OC)c3C)nc2c1` (stereo not shown) [omeprazole], for which the “effect on phage-mediated luciferase gene transfer” value in data set [1] (setting [9]) and in data set [2] (Tpell phage) was “no effect” each time.
On to `CC(=O)O[C@H]1C(=O)[C@@]2(C)[C@H]([C@H](OC(=O)c3ccccc3)[C@]3(O)C[C@H](OC(=O)[C@H](O)[C@@H](NC(=O)c4ccccc4)c4ccccc4)C(C)=C1C3(C)C)[C@]1(OC(C)=O)CO[C@@H]1C[C@@H]2O` [paclitaxel], for which the “increase in plasmid gene transfer efficiency” value in data set [8] is on record as “approx 50 fold”.
